Article PMC8148554, “Characterization and Regulation of the Acetolactate Synthase Genes Involved in Acetoin Biosynthesis in Acetobacter pasteurianus” (Foods, 2021)

Molecular target: T1, AlsS2 (Acetobacter pasteurianus, UniProt A0A401X088)
T1 construct: gene NBRC3278_0356; full length, gene 1695 bp (564 residues with stop codon in the gene); pET-22b(+) NdeI/XhoI, E. coli BL21(DE3), His tag (C-terminal by cloning, no stop in primer); about 59 kDa
T1 sequence (A0A401X088 1-564): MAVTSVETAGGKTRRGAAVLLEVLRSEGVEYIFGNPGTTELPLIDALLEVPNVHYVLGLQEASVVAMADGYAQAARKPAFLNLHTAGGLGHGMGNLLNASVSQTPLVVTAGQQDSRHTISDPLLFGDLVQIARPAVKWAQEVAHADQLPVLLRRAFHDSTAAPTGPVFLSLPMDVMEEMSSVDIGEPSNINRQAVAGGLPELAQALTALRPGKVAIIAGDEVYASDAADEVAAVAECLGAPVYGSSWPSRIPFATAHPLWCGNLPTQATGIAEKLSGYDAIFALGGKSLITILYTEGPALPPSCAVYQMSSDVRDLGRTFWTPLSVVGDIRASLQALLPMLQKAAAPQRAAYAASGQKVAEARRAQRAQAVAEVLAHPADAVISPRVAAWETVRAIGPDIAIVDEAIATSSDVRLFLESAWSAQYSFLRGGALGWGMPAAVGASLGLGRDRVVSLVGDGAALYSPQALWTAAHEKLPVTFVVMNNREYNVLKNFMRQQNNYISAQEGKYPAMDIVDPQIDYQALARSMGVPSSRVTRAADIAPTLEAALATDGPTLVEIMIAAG
Assay: GC detection of benzaldehyde formed
Type: biochemical
Conditions: 10 mM benzoylformate, 0.5 mM MgCl2, 1 mM TPP, 100 mM sodium phosphate pH 7.0, 37 °C, 10 h

`O=C(O)C(=O)c1ccccc1` [benzoylformate] was tested. Which “GC detection of benzaldehyde formed” value did it give?
Its value is “Benzaldehyde was detected in the reaction mixture”.
